Measured values reported in article PMC8023712, “Carboxylesterase Activities and Protein Expression in Rabbit and Pig Ocular Tissues” (Molecular Pharmaceutics, 2021).

What was measured:
[1] = test system: CES1 (rabbit ocular tissue homogenates); experiment: DME hydrolysis in rabbit ocular tissue homogenates; conditions: for DME hydrolysis rate: 5 μM DME
Method: (§1) The hydrolysis of DME was monitored with slight modifications using the published bioluminescence-based assay[13],[21] where recombinant firefly luciferase enzyme was used to detect the D-luciferin that formed in the reaction mixture. The DME hydrolysis reaction was done in white-coated 96-well plates (Thermo Scientific Sterilin Microtiter Plates). Tissue lysates (5 μg of protein) were preincubated in 0.1 M PBS, pH 6.5. The reaction was initiated by adding DME to a final concentration of 5 μM in a final volume of 200 μL. The hydrolysis of DME was allowed to proceed for 20 min at 37 °C. The formed D-luciferin was quantitated by an injection of 73 μL of the luciferase detection reagent [3 μg of rLuciferase, 50 nmol of ATP, and 50 nmol of MgCl2 in PBS], and the luminescence was measured immediately with a Victor^2 Microplate Reader (560 nm, 1 s). Serial 2-fold dilutions of D-luciferin in 0.1 M PBS, pH 6.5 were used to generate the standard curve (0.156–10 μM).
(§2) Inhibitors were tested at a final concentration range of 0.4–400 μM except for PMSF (0.3–2.5 mM).

[2] = test system: CES1 (pig ocular tissue homogenates); experiment: DME hydrolysis in pig ocular tissue homogenates; conditions: for DME hydrolysis rate: 5 μM DME
Method: as §1, §2

[3] = test system: rhCES1; conditions: read-out: Km literature data, DME; cited from earlier work
[4] = test system: CES1 (rat whole eye homogenate); experiment: DME hydrolysis in rat whole eye homogenate (positive control); type: in vitro ADME; conditions: 5 μM DME
Excerpt: (§3) CES enzymes are localized in the endoplasmic reticulum,[2],[45] but some activity resides in the cytoplasm.[46] Therefore, to prevent possible losses during sample preparation, we used whole tissue homogenates to characterize CES expression and activity in ocular tissues. The homogenization of pooled ocular tissues in 1 × DPBS buffer (3:1 v/w) was done with a Dounce homogenizer (Thomas Scientific; Swedesboro, NJ) with 5–10 strokes, depending on the ocular tissue. Aqueous humor and vitreous were homogenized without adding buffer. Tissue homogenization buffer was supplemented with protease inhibitor cocktail without phenylmethylsulfonyl fluoride (PMSF), a known inhibitor of esterases.[47],[48] After homogenization, all samples were sonicated at 750 W (Vibra-Cell VCX50 and a four-element microtip probe; Sonics & Materials Inc., Newton, CT) using four pulses of 45 s with a cooling interval of 15 s. […]
(§4) The hydrolysis of DME was monitored with slight modifications using the published bioluminescence-based assay[13],[21] where recombinant firefly luciferase enzyme was used to detect the D-luciferin that formed in the reaction mixture. […] The formed D-luciferin was quantitated by an injection of 73 μL of the luciferase detection reagent [3 μg of rLuciferase, 50 nmol of ATP, and 50 nmol of MgCl2 in PBS], and the luminescence was measured immediately with a Victor^2 Microplate Reader (560 nm, 1 s).

[5] = target: T1, CES1 (human liver homogenate) (Homo sapiens, UniProt P23141); experiment: DME hydrolysis in human liver homogenate (positive control); type: in vitro ADME; conditions: 5 μM DME
T1 construct: Homogenates for rat whole eye (covered by the license # ESAVI/8621/04.10.07/2017) and human liver; from tissue; host or cells: human liver homogenate (donated, Oulu University Hospital)
Excerpt: as §3, §4

T1 sequence (P23141 18-567): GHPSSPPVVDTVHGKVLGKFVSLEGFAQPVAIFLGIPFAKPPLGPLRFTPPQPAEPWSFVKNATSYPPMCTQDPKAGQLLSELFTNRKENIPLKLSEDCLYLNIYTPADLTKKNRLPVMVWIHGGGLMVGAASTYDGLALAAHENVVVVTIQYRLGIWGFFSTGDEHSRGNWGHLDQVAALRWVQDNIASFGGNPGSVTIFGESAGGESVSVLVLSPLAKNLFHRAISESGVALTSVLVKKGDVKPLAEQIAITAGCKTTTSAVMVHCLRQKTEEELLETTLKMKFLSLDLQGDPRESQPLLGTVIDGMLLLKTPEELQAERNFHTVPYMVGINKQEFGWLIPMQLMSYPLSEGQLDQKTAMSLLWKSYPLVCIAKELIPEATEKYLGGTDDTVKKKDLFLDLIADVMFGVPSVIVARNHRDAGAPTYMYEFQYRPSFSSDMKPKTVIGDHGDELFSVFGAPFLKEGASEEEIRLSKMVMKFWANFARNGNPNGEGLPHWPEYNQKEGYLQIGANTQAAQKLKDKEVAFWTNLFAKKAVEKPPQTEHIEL

In the case of `COC(=O)[C@H]1CSC(c2nc3ccc(O)cc3s2)=N1` [DME, D-luciferin methyl ester], the DME hydrolysis rate ([1]; rabbit RPE and retina) is reported as 0.1 to 0.5 nmol/min/mg, the DME hydrolysis rate ([1]; rabbit aqueous humor and vitreous) is reported as 0.5 to 1.0 nmol/min/mg and the DME hydrolysis rate ([1]; rabbit conjunctiva, cornea and choroid) is reported as ≥ 1 nmol/min/mg. The Km ([1]; read-out: Km (this study), DME hydrolysis in rabbit cornea) was 2500 ± 800 nM, the DME hydrolysis rate ([2]; pig RPE, aqueous humor and vitreous) was 0.1 to 0.2 nmol/min/mg and the DME hydrolysis rate ([2]; pig conjunctiva, cornea and choroid) was ≥ 1 nmol/min/mg. The DME hydrolysis rate ([2]; pig retina) was 0.5 to 1 nmol/min/mg, the Km ([2]; read-out: Km (this study), DME hydrolysis in pig cornea) was 2700 ± 1300 nM and the Km [3] was ~5 µM. It also gave a DME hydrolysis rate [4] of 2.6 ± 0.2 nmol/min/mg and a DME hydrolysis rate [5] of 3.6 ± 0.7 nmol/min/mg.
